From patent US20160354312A1, “FORMULATIONS OF JASMONATES AND NANOCARRIERS OR MICROCARRIERS” (Nanocare Technologies, Inc., priority 2008, published 2016) come the findings set out here.

This series can be described thus: GC/MS analysis of incorporation of methyl jasmonate in nanocarriers. The class given is physicochemical. On the procedure:
The class of dendrimers used was PAMAM. […] The experimental data was obtained using a GC with a column temperature of 50° C., the injection temperature of 250° C., Flow control mode linear, total flow 50.0 mL/min., and column flow of 1.70 mL/min. The percentage relative to the incorporation of methyl jasmonate inside β-CD was 98-99% and for dendrimer PAMAM it was more than 95%. Comparing peak 1 with 2, peak 2 is methyl Jasmonate alone and peak 1 is the inclusion compounds formed. In both cases peak 1 is clearly different and proves the molecular association.

With `CC/C=C\CC1C(=O)CCC1CC(=O)OC` (centres unmarked) [methyl jasmonate], the “percentage relative to the incorporation of methyl jasmonate” value is listed as “more than 95%” (dendrimer PAMAM) and 98-99% (inside β-CD).
